Results on 13 compounds are retold here after ChEMBL document CHEMBL5625275, “Design, synthesis and biological evaluation of tanshinone IIA derivatives as NLRP3 inflammasome inhibitors” (Bioorg Med Chem Lett, 2024).

The target in series [1] is NACHT, LRR and PYD domains-containing protein 3 (Mus musculus, UniProt Q8R4B8). Kind of series: Inhibition of NLRP3 inflammasome in mouse J774.A1 cells assessed as inhibition of IL-1 beta secretion. It counts as cell-based.
Series [2] can be described thus: Cytotoxicity against mouse J774.A1 cells assessed as cell viability. Format: toxicity, cell-based. The note with it: read-out: TC50 (the source's name).
Series [3] has as its system Mus musculus. Kind of series: Anti-inflammatory activity against LPS-induced peritonitis C57BL/6 mouse model assessed as inhibition of IL-1 beta level in peritoneal fluid at 25 to 100 mg/kg, IG by ELISA analysis. It counts as functional, organism-based. The settings on record: dose 25-100 mg/kg. For orientation: ELISA stands for enzyme-linked immunosorbent assay.
Series [4] concerns Mus musculus. The series can be described thus: Anti-inflammatory activity against LPS-induced peritonitis C57BL/6 mouse model assessed as inhibition of IL-1 beta level in serum at 25 to 100 mg/kg, IG by ELISA analysis. The settings on record: dose 25-100 mg/kg. It counts as functional, organism-based.
Series [5] concerns J774.A1. The series can be described thus: Inhibition of intracellular ROS generation in LPS primed mouse J774.A1 cells assessed as decrease in ROS positive cells at 5 uM pretreated for 1 hr followed by nigericin treatment for 1 hr by DCFH-DA staining based fluorescence microscopy (reference value: 52%). The settings on record: time 2 hrs. Format: functional. The arrangement: scale not given: the % may be the effect or the level left.

A further series concerns NLRP3 inflammasome. The series can be described thus: Selectivity index, ratio of TC50 for mouse J774.A1 cells to IC50 for NLRP3 inflammasome in mouse J774.A1 cells. It counts as toxicity, cell-based. The settings on record: read-out: Selectivity Index.
Series [6] addresses NACHT, LRR and PYD domains-containing protein 3 (Mus musculus) (UniProt Q8R4B8). The series can be described thus: Inhibition of NLRP3 inflammasome in LPS primed mouse J774.A1 cells assessed as inhibition of caspase-1 maturation at 1 to 5 uM preincubated with compound for 1 hr followed by nigericin stimulation and measured after 1 hr by Western blot analysis. The note with it: dose 1-5 µM, time 2.0 hrs. It counts as cell-based. (In general: A western blot detects proteins with antibodies after separation by electrophoresis.)

Series [7] has the same target. The series can be described thus: Inhibition of NLRP3 inflammasome activation in LPS primed mouse J774.A1 cells assessed as reduction in lactate dehydrogenase at 1 to 5 uM preincubated with compound for 1 hr followed by nigericin stimulation and measured after 1 hr by ELISA method. It counts as cell-based. The note with it: dose 1-5 µM, time 2.0 hrs.
For series [8], the system named is J774.A1. Kind of series: Inhibition of mitochondrial ROS production in LPS/nigericin stimulated mouse J774.A1 cells at 1 to 5 uM pretreated for 1 hr with compound and LPS followed by nigericin treatment for 1 hr by MitoSOX staining based immunofluorescence analysis. It counts as functional, cell-based. The note with it: dose 1-5 µM, time 2.0 hrs.
Series [9] concerns J774.A1. The series can be described thus: Inhibition of intracellular ROS generation in LPS primed mouse J774.A1 cells assessed as decrease in ROS positive cells at 1 uM pretreated for 1 hr followed by nigericin treatment for 1 hr by DCFH-DA staining based fluorescence microscopy (reference value: 52%). Also on record: scale not given: the % may be the effect or the level left. The note with it: time 2 hrs. It counts as functional.

Series [10] addresses NACHT, LRR and PYD domains-containing protein 3 (Mus musculus) (UniProt Q8R4B8). Kind of series: Inhibition of NLRP3 inflammasome in LPS primed mouse J774.A1 cells assessed as inhibition of IL-1 beta secretion in cell supernatant at 1 to 5 uM preincubated with compound for 1 hr followed by nigericin stimulation and measured after 1 hr by Western blot analysis. The settings on record: dose 1-5 µM, time 2.0 hrs. It counts as cell-based.

Series [11] shares this target. The series can be described thus: Inhibition of NLRP3 inflammasome activation in LPS primed mouse J774.A1 cells assessed as decrease in IL-1 beta production preincubated with compound for 1 hr followed by nigericin stimulation and measured after 1 hr by ELISA method. It counts as cell-based. The note with it: dose 1-5 µM, time 2.0 hrs.
For series [12] the target is unchanged. Kind of series: Inhibition of NLRP3 inflammasome activation in LPS primed mouse BMDM cells assessed as decrease in IL-1 beta production preincubated with compound for 1 hr followed by nigericin stimulation and measured after 1 hr by ELISA method. It counts as cell-based. The settings on record: dose 1-5 µM, time 2.0 hrs.
Series [13] concerns J774.A1. The series can be described thus: Inhibition of intracellular ROS generation in LPS primed mouse J774.A1 cells pretreated for 1 hr followed by nigericin treatment for 1 hr by DCFH-DA staining based fluorescence microscopy. Format: functional, cell-based. The note with it: dose 1-5 µM, time 2.0 hrs.
Series [14] deals with NACHT, LRR and PYD domains-containing protein 3 (Mus musculus) (UniProt Q8R4B8). The series can be described thus: Inhibition of NLRP3 inflammasome activation in LPS primed mouse J774.A1 cells assessed as reduction in cleaved gasdermin-D at 1 to 5 uM preincubated with compound for 1 hr followed by nigericin stimulation and measured after 1 hr by ELISA method. It counts as cell-based. The settings on record: dose 1-5 µM, time 2.0 hrs.
Chain of NACHT, LRR and PYD domains-containing protein 3 (Mus musculus) (Q8R4B8 whole entry, the tested form may be a part): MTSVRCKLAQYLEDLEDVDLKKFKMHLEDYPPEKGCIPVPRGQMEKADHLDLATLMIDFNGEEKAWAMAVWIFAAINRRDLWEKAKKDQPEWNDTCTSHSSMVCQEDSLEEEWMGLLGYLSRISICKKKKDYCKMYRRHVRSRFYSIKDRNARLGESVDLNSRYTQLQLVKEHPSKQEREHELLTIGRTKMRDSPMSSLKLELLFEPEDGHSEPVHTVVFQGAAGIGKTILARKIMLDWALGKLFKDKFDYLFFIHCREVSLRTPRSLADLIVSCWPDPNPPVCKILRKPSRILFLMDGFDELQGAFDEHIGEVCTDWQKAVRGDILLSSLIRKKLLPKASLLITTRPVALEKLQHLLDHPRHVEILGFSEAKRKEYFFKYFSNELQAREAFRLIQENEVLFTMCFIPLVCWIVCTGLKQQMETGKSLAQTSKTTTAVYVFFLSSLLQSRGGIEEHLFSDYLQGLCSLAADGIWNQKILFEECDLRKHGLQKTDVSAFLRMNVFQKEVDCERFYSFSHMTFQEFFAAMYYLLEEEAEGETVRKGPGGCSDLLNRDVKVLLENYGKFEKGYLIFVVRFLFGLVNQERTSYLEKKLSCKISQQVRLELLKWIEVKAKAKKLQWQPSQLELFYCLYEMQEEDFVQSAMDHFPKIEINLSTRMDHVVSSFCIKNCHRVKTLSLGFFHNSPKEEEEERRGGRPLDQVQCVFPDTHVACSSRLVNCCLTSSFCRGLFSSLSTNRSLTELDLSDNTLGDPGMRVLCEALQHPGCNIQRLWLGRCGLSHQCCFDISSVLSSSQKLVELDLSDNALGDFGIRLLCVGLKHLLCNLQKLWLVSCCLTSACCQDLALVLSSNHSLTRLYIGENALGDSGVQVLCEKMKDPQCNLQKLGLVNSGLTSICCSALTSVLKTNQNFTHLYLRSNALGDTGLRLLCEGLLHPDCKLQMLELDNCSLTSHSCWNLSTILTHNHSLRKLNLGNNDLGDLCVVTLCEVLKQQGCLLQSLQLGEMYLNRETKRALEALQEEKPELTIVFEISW

The source made the active and inactive calls. The rule behind the calls is not given here.

Chain of NACHT, LRR and PYD domains-containing protein 3 (Q8R4B8 whole entry, the tested form may be a part): as above

As to `Cc1coc2c1C(=O)C(=O)c1c-2ccc2c1C=CCC2(C)C`, the half-maximal inhibitory concentration (IC50) in series [1] stood at 0.61 µM. For the same compound, in series [2], the CC50 is 61.8 µM.

As for `Cc1coc2c1C(=O)C(=O)c1c-2ccc2c1C(OC(=O)c1ccc(O)cc1)CCC2(C)C` (centres undefined), the IC50 in series [1] stood at 2.57 µM. Besides, the CC50 in series [2] came to 14.5 µM.

Take `Cc1coc2c3ccc4c(c3c3ocnc3c12)CCCC4(C)C`: the IC50 in series [1] is above 40 µM. Moreover, in [2], the CC50 is above 100 µM.

`Cc1coc2c1C(=O)C(=O)c1c-2ccc2c1C(OC(=O)c1cccc(O)c1)CCC2(C)C` (centres undefined): the IC50 in [1] worked out at 5.53 µM. Besides, the CC50 in [2] amounted to 18.2 µM.

Regarding `Cc1coc2c1C(=O)C(=O)c1c-2ccc2c1C(OC(=O)CCCCC1CCSS1)CCC2(C)C` (centres undefined), the IC50 in series [1] turned out to be 1.27 µM. For the same compound, the CC50 in series [2] was 26.8 µM.

Turning to `Cc1c(-c2ccccc2)oc2c1C(=O)C(=O)c1c-2ccc2c1CCCC2(C)C`, the IC50 in [1] is above 40 µM. For the same compound, the CC50 in series [2] is above 100 µM.

With `CC(=O)OC1CCC(C)(C)c2ccc3c(c21)C(=O)C(=O)c1c(C)coc1-3` (centres undefined), the IC50 in [1] worked out at 1.25 µM. The CC50 in [2] was determined as 36.5 µM.

Turning to `Cc1coc2c1C(=O)C(=O)c1c-2ccc2c1C(OC(=O)c1cc(Cl)ccc1Cl)CCC2(C)C` (centres undefined), the IC50 in [1] was 3.6 µM. In series [2], the CC50 turned out to be 19.7 µM.

For the compound `COc1cc(/C=C/C(=O)OC2CCC(C)(C)c3ccc4c(c32)C(=O)C(=O)c2c(C)coc2-4)cc(OC)c1OC` (centres undefined), the IC50 in series [1] was 9.11 µM. Also, in series [2], the CC50 is 60.2 µM.

On to `Cc1coc2c1C(=O)C(=O)c1c-2ccc2c1CCCC2(C)C` [TANSHINONE IIA], for which the IC50 in series [1] turned out to be 5.15 µM. Further, the CC50 in [2] was above 100 µM.

Regarding `Cc1c(Br)oc2c1C(=O)C(=O)c1c-2ccc2c1CCCC2(C)C`, the IC50 in series [1] came out at 5.21 µM. The CC50 in series [2] is above 100 µM.

For the compound `Cc1coc2c1C(=O)C(=O)c1c-2ccc2c1C(OC(=O)c1ccccc1O)CCC2(C)C` (centres undefined), in series [1], the IC50 was found to be 0.48 µM. Also, the outcome with Mus musculus [3] and with Mus musculus [4] was Active. Moreover, the CC50 in series [2] was 30.8 µM. Also, the Activity in the series on J774.A1 [5] came out at 56%; in the series on J774.A1 [9] it was 60%. Also, the selectivity ratio with NLRP3 inflammasome was 62.1. Moreover, the inhibition result (in series [6]; in series [7]; with J774.A1 [8]; in [10]; in series [14]) was “Active” each time. For the same compound, the inhibition entry (in series [11]; in series [12]; with J774.A1 [13]) was “Dose-Dependent Effect” each time.

As for `Cc1c(S(=O)(=O)O)oc2c1C(=O)C(=O)c1c-2ccc2c1CCCC2(C)C` [TANSHINONE IIA SULFONIC ACID], the IC50 in series [1] was found to be 4.3 µM. Further, the CC50 in series [2] was above 100 µM.

The term IC50 denotes the midpoint of a concentration-inhibition curve.
